# How the values were obtained:
# [1] = system: carrageenin-induced mechanical hyperalgesia; assay: Carrageenin-induced mechanical hyperalgesia (rat paw pressure test); format: in vivo; conditions: for MED, antagonism of carrageenin-induced mechanical hyperalgesia: s.c. 3.5 hours after carrageenin
# Protocol: Nociceptive pressure thresholds were measured in the rat using the paw pressure test. Baseline (BL) measurements were taken before animals were administered with 100 μL of 2% carrageenin by intraplantar injection. Results are shown as mean (±SEM) of 8 animals per group.
# (§1) On the test Day, 2 to 3 baseline measurements were taken before rats (male Sprague-Dawley 70-90 g) were administered with 100 μL of 2% carrageenin by intraplantar injection into the right hind paw. Animals were dosed with the test drug after development of peak hyperalgesia. Separate groups of animals were used for the mechanical and thermal hyperalgesia studies.
# Nociceptive pressure thresholds were measured in the rat paw pressure test using an analgesimeter (Ugo Basile). A cut-off point of 250 g was used to prevent any damage to the paw. The intraplantar injection of carrageenin produced a reduction in the nociceptive pressure threshold between 3 and 5 hours after injection, indicating induction of hyperalgesia. […] Gabapentin (3-300 mg/kg, s.c.) and CI-1008 (1-100 mg/kg, s.c.) dose-dependently antagonized the hyperalgesia, with respective MED of 10 and 3 mg/kg (FIG. 2).
# [2] = system: formalin-induced hind paw licking and biting; assay: Rat paw formalin test; format: in vivo; conditions: for effect on the early phase of the formalin response / minimum effective dose (MED), block of licking/biting behavior during the late phase of the formalin response: s.c. 1 hour before formalin; for effect on the early phase of the formalin response: early phase (0-10 minutes), any of the doses tested; for minimum effective dose (MED), block of licking/biting behavior during the late phase of the formalin response: late phase (10-45 minutes)
# Protocol: Test compounds were administered s.c. 1 hour before an intraplantar injection of 50 μL formalin. The time spent licking/biting the injected paw during the early and late phases was scored.
# Male Sprague-Dawley rats (70-90 g) were habituated to perspex observation chambers (24 cm×24 cm×24 cm) for at least 15 minutes prior to testing. Formalin-induced hind paw licking and biting was initiated by a 50 μL subcutaneous injection of a 5% formalin solution (5% formaldehyde in isotonic saline) into the plantar surface of the left hind paw. Immediately following the formalin injection, licking/biting of the injected hind paw was scored in 5 minute bins for 60 minutes. The results are expressed as mean combined licking/biting time for the early phase (0-10 minutes) and late phase (10-45 minutes).
# [3] = system: carrageenin-induced thermal hyperalgesia; assay: Carrageenin-induced thermal hyperalgesia (Hargreaves model); format: in vivo, rat; conditions: s.c. 2.5 hours after carrageenin; PWL at 3 and 4 hours
# Protocol: Nociceptive thermal thresholds were measured in the rat using the Hargreaves apparatus. Baseline (BL) measurements were taken before animal s were administered with 100 μL of 2% carrageenin by intraplantar injection. Results are shown as mean (±SEM) of 8 animals per group.
# as §1
# Baseline paw withdrawal latencies (PWL) were obtained for each rat using the Hargreaves model. Carrageenin was injected as described above. Animals were then tested for thermal hyperalgesia at 2 hours postcarrageenin administration. Gabapentin (10-100 mg/kg) or CI-1008 (1-30 mg/kg) was administered s.c. 2.5 hours after carrageenin, and PWL were reevaluated at 3 and 4 hours postcarrageenin administration. Carrageenin induced a significant reduction in paw withdrawal latency at 2, 3, and 4 hours following injection, indicating the induction of thermal hyperalgesia (FIG. 3). Gabapentin and CI-1008 dose-dependently antagonized the hyperalgesia with a MED of 30 and 3 mg/kg (FIG. 3).
# [4] = system: thermal hyperalgesia after incision of the rat plantaris muscle; assay: Thermal hyperalgesia in the rat postoperative pain model (rat plantar test); format: in vivo; conditions: for MED, block of development of thermal hyperalgesia: single dose s.c. before surgery (1 hour; morphine 0.5 hour)
# Protocol: Gabapentin or S-(+)-3 isobutylgaba was administered 1 hour before surgery. Morphine was administered 0.5 hour before surgery. Thermal paw withdrawal latencies (PWL) were determined for both ipsilateral and contralateral paws using the rat plantar test. For clarity contralateral paw data for drug-treated animals is not shown. Baseline (BL) measurements were taken before surgery and PWL were reassessed 2, 24, 48, and 72 hours postsurgery. […] In the figure, —●— is vehicle contralateral, —◯— is vehicle ispsilateral, —Δ— is 1 mg/kg morphine, —▭— is 3, and —⋄— is 6 for morphine in 4a. In 4b, —Δ— is 3, —▭— is 10, and —⋄— is 30 for gabapentin. In 4c, —Δ— is 3 mg/kg, —▭— is 10, and —⋄— is 30 for S-(+)-isobutylgaba.
# (§2) S-(+)-3-Isobutylgaba (S-(+)-IBG) was administered 1 hour after surgery. Thermal paw withdrawal latencies, determined using the rat plantar test, and paw withdrawal thresholds to von Frey hair filaments, were determined in separate groups of animals for both ipsilateral and contralateral paws. For clarity only the ipsilateral paw data is shown. Baseline (BL) measurements were taken before surgery and withdrawal thresholds were reassessed up to 6 hours postsurgery.
# (§3) Male Sprague-Dawley rats (250-300 g), obtained from Bantin and Kingmen, (Hull, U. K.) were used in all experiments. Before surgery, animals were housed in groups of 6 under a 12-hour light/dark cycle (lights on at 07 hour 00 minute) with food and water ad libitum. Postoperatively, animals were housed in pairs on “Aqua-sorb” bedding consisting of air laid cellulose (Beta Medical and Scientific, Sale, U.K.) under the same conditions. All experiments were carried out by an observer blind to drug treatments.
# (§4) Animals were anaesthetized with 2% isofluorane and 1.4 […] mixture which was maintained during surgery via a nose cone. The plantar surface of the right hind paw was prepared with 50% ethanol, and a 1-cm longitudinal incision was made through skin and fascia, starting 0.5 cm from the edge of the heel and extending towards the toes. The plantaris muscle was elevated using forceps and incised longitudinally. The wound was closed using two simple sutures of braided silk with a FST-02 needle. The wound site was covered with Terramycin spray and Auromycin powder. […] The sutures were removed after 48 hours.
# Thermal hyperalgesia was assessed using the rat plantar test (Ugo Basile, Italy) following a modified method of Hargreaves, et al., 1988. Rats were habituated to the apparatus which consisted of three individual perspex boxes on an elevated glass table. A mobile radiant heat source was located under the table and focused onto the hind paw and paw withdrawal latencies (PWL) were recorded. There was an automatic cut off point of 22.5 seconds to prevent tissue damage. PWLs were taken 2 to 3 times for both hind paws of each animal, the mean of which represented baselines for right and left hind paws. The apparatus was calibrated to give a PWL of approximately 10 seconds. PWL(s) were reassessed following the same protocol as above 2, 24, 48, and 72 hours postoperatively.
# (§5) Data obtained for thermal hyperalgesia was subjected to a one-way (analysis of variance) ANOVA followed by a Dunnett's t-test. Tactile allodynia results obtained with the von Frey hairs were subjected to an individual Mann Whitney t-test.
# [5] = system: tactile allodynia after incision of the rat plantaris muscle; assay: Tactile allodynia in the rat postoperative pain model (von Frey hairs); format: in vivo; conditions: for effect on tactile allodynia scores in the contralateral paw: up to the highest dose tested; for MED, prevention of development of tactile allodynia: s.c. 1 hour before surgery
# Protocol: Gabapentin or S-(+)-3-isobutylgaba was administered 1 hour before surgery. Morphine was administered 0.5 hour before surgery. Paw withdrawal thresholds to von Frey hair filaments were determined for both ipsilateral and contralateral paws. For clarity, contralateral paw data for drug-treated animals is not shown. Baseline (BL) measurements were taken before surgery, and withdrawal thresholds were reassessed 3, 25, 49, and 73 hours postsurgery. […] In FIG. 5, —●— is vehicle contralateral, —◯— is vehicle ispsilateral. For morphine (5a), —Δ— is 1 mg/kg, —▭— is 3, and —⋄— is 16.
# as §2, §3, §4
# Tactile allodynia was measured using Semmes-Weinstein von Frey hairs (Stoelting, Ill., U.S.A.). Animals were placed into wire-mesh-bottom cages allowing access to the underside of their paws. The animals were habituated to this environment prior to the start of the experiment. Tactile allodynia was tested by touching the plantar surface of the animals hind paw with von Frey hairs in ascending order of force (0.7, 1.2, 1.5, 2, 3.6, 5.5, 8.5, 11.8, 15. 1, and 29 g) until a paw withdrawal response was elicited. Each von Frey hair was applied to the paw for 6 seconds, or until a response occurred. Once a withdrawal response was established, the paw was retested, starting with the next descending von Frey hair until no response occurred. The highest force of 29 g lifted the paw as well as eliciting a response, thus represented the cut-off point. Each animal had both hind paws tested in this manner. The lowest amount of force required to elicit a response was recorded as withdrawal threshold in grams. When compounds were administered before surgery, the same animals were used to study drug effects on tactile, allodynia, and thermal hyperalgasia, with each animal being tested for tactile allodynia 1 hour after thermal hyperalgesia. Separate groups of animals were used for examination of tactile allodynia and thermal hyperalgesia when S-(+)-3-isobutylgaba was administered after surgery.
# as §5
# [6] = 30 mg/kg s.c. 1 hour before surgery
# [7] = 30 mg/kg, 1 hour before surgery
structure (smiles),measurement,setting,value
"NCC1(CC(=O)O)CCCCC1 [Gabapentin, 1-(aminomethyl)-cyclohexaneacetic acid]","MED, antagonism of carrageenin-induced mechanical hyperalgesia",[1],10 mg/kg
same,effect on the early phase of the formalin response,[2],neither of the compounds affected the early phase
same,"minimum effective dose (MED), block of licking/biting behavior during the late phase of the formalin response",[2],30 mg/kg
same,"MED, antagonism of carrageenin-induced thermal hyperalgesia",[3],30 mg/kg
same,duration of prevention of the hyperalgesic response,[4]; [6],24 h
same,effect on PWL of the contralateral paw in the thermal hyperalgesia test,[4]; up to the highest dose tested,did not affect PWL
same,"MED, block of development of thermal hyperalgesia",[4],30 mg/kg
same,duration of effect on tactile allodynia,"[5]; 10 mg/kg, 1 hour before surgery",25 h
same,duration of effect on tactile allodynia,[5]; [7],49 h
same,effect on tactile allodynia scores in the contralateral paw,[5],did not affect
same,"MED, prevention of development of tactile allodynia",[5],10 mg/kg
"CC(C)C[C@H](CN)CC(=O)O [CI-1008, (S)-3-(aminomethyl)-5-methylhexanoic acid]","MED, antagonism of carrageenin-induced mechanical hyperalgesia",[1],3 mg/kg
same,effect on the early phase of the formalin response,[2],neither of the compounds affected the early phase
same,"minimum effective dose (MED), block of licking/biting behavior during the late phase of the formalin response",[2],10 mg/kg
same,"MED, antagonism of carrageenin-induced thermal hyperalgesia",[3],3 mg/kg
same,duration of effect on thermal hyperalgesia,[4]; [6],up to 3 days
same,effect on PWL of the contralateral paw in the thermal hyperalgesia test,[4]; up to the highest dose tested,did not affect PWL
same,"MED, block of development of thermal hyperalgesia",[4],3 mg/kg
same,block of induction and maintenance of hyperalgesia,[4]; summary statement,completely blocked
same,duration of blockade of the allodynia response,[5]; [7],3 days
same,effect on tactile allodynia scores in the contralateral paw,[5],did not affect
same,"MED, prevention of development of tactile allodynia",[5],10 mg/kg
same,block of induction and maintenance of allodynia,[5]; summary statement,completely blocked
"CC(C)CC(CN)CC(=O)O (centres unmarked) [3-aminomethyl-5-methyl-hexanoic acid, 3-aminomethyl-5-methylhexanoic acid]",blockade of the late phase of the formalin response,[2]; 100 mg/kg s.c. 1 hour before formalin,only a modest blockade
CN1CC[C@]23c4c5ccc(O)c4O[C@H]2[C@@H](O)C=C[C@H]3[C@H]1C5 [Morphine],effect on carrageenin-induced mechanical hyperalgesia,"[1]; 3 mg/kg, s.c.",complete blockade of hyperalgesia
same,effect on PWL of the contralateral paw in the thermal hyperalgesia test,"[4]; 6 mg, s.c., data not shown",increased PWL of the contralateral paw
same,duration of antagonism of development of thermal hyperalgesia,[4]; 1-6 mg/kg s.c. 0.5 hour before surgery,24 h
same,"MED, block of development of thermal hyperalgesia",[4],1 mg/kg
same,duration of prevention of development of tactile allodynia,"[5]; highest dose of 6 mg/kg, 0.5 hour before surgery",3 h

# Reference: USRE41920E1, “Isobutylgaba and its derivatives for the treatment of pain” (Warner-Lambert Company LLC, priority 1997, dated 2010)
